In PubChem BioAssay AID248 (DTP/NCI, 2004):
Values joined by “and” are separate entries in the source; they are usually repeats but may differ in a detail not shown here. Identical values can stand only once. Toxic doses and inconclusive results are not listed. No stated cut-off is given here; in the data, active means T/C of 150% or more; inactive means T/C below 125%.

Test system: L1210 leukemia ip in BDF1 mice, survival T/C
Experiment: NCI In Vivo Anticancer Drug Screen. Data for tumor model L1210 Leukemia (intraperitoneal) in B6D2F1 (BDF1) mice
Conditions: endpoint: mean survival time, higher = longer survival
Summary of the method: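 Survival endpoint. Drug-treated group vs vehicle group, expressed as T divided by C. Tumor passaged by transplantation.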

[1] = dose: 50.0 mg/kg/injection, schedule: Q01DX009 (ip), vehicle: saline
[2] = dose: 100.0 mg/kg/injection, schedule: Q01DX009 (ip), vehicle: saline
[3] = dose: 50.0 mg/kg/injection, schedule: Q01DX001 (ip), vehicle: carboxymethylcellulose (CMC)
[4] = dose: 100.0 mg/kg/injection, schedule: Q01DX001 (ip), vehicle: carboxymethylcellulose (CMC)
[5] = dose: 200.0 mg/kg/injection, schedule: Q01DX001 (ip), vehicle: carboxymethylcellulose (CMC)
[6] = dose: 400.0 mg/kg/injection, schedule: Q01DX001 (ip), vehicle: carboxymethylcellulose (CMC)
[7] = dose: 100.0 mg/kg/injection, schedule: Q01DX009 (ip), vehicle: saline sonified
[8] = dose: 100.0 mg/kg/injection, schedule: Q04DX003 (ip), vehicle: Klucel (hydroxypropylcellulose) (HPC)
[9] = dose: 200.0 mg/kg/injection, schedule: Q01DX009 (ip), vehicle: saline sonified
[10] = dose: 200.0 mg/kg/injection, schedule: Q04DX003 (ip), vehicle: Klucel (hydroxypropylcellulose) (HPC)
[11] = dose: 400.0 mg/kg/injection, schedule: Q01DX009 (ip), vehicle: saline sonified
[12] = dose: 400.0 mg/kg/injection, schedule: Q04DX003 (ip), vehicle: Klucel (hydroxypropylcellulose) (HPC)
[13] = dose: 50.0 mg/kg/injection, schedule: Q04DX002 (ip), vehicle: saline with Tween-80
[14] = dose: 100.0 mg/kg/injection, schedule: Q04DX002 (ip), vehicle: saline with Tween-80
[15] = dose: 100.0 mg/kg/injection, schedule: Q01DX001 (ip), vehicle: saline
[16] = dose: 200.0 mg/kg/injection, schedule: Q01DX001 (ip), vehicle: saline
[17] = dose: 400.0 mg/kg/injection, schedule: Q01DX001 (ip), vehicle: saline
[18] = dose: 12.5 mg/kg/injection, schedule: Q01DX009 (ip), vehicle: Klucel (hydroxypropylcellulose) (HPC)
[19] = dose: 25.0 mg/kg/injection, schedule: Q01DX009 (ip), vehicle: Klucel (hydroxypropylcellulose) (HPC)
[20] = dose: 50.0 mg/kg/injection, schedule: Q01DX009 (ip), vehicle: Klucel (hydroxypropylcellulose) (HPC)
[21] = dose: 100.0 mg/kg/injection, schedule: Q01DX009 (ip), vehicle: Klucel (hydroxypropylcellulose) (HPC)
[22] = dose: 100.0 mg/kg/injection, schedule: Q04DX003 (ip), vehicle: saline

Measured: T/C

CC(=O)[O][Sn]([c]1ccccc1)([c]1ccccc1)[c]1ccccc1
inactive: dose: 0.39 mg/kg/injection, schedule: Q01DX009 (ip), vehicle: saline with Tween-80 98 % of control | dose: 0.78 mg/kg/injection, schedule: Q01DX009 (ip), vehicle: saline with Tween-80 93 % of control | dose: 1.0 mg/kg/injection, schedule: Q01DX015 (ip), vehicle: saline 97 % of control | dose: 1.56 mg/kg/injection, schedule: Q01DX009 (ip), vehicle: saline with Tween-80 106 % of control | dose: 1.56 mg/kg/injection, schedule: Q04DX003 (ip), vehicle: saline 106 % of control | dose: 2.0 mg/kg/injection, schedule: Q01DX015 (ip), vehicle: saline 89 % of control | dose: 2.33 mg/kg/injection, schedule: Q01DX009 (ip), vehicle: saline with Tween-80 105 % of control | dose: 3.54 mg/kg/injection, schedule: Q01DX009 (ip), vehicle: saline with Tween-80 100 % of control

C[CH2][Sn](/[CH]=C/C(C)(C)O)([CH2]C)[CH2]C
inactive: [1] 102 % of control | [2] 102 % of control

CCOC(=O)C(C)(N)CCOCc1ccccc1 (stereo not drawn)
inactive: [3] 100 % of control | [4] 102 % of control | [5] 100 % of control | [6] 104 % of control

O=C(O)CCCC(=O)NC1CC2c3ccccc3C1c1ccccc12 (stereo not drawn)
inactive: [7] 101 % of control | [8] 94 % of control | [9] 100 % of control | [10] 96 % of control | [11] 100 % of control | [12] 91 % of control

Cc1cccc(C)c1/[N+]([O-])=C/c1ccc(Cl)cc1
inactive: dose: 100.0 mg/kg/injection, schedule: Q01DX001 (ip), vehicle: Klucel (hydroxypropylcellulose) (HPC) 101 % of control | dose: 200.0 mg/kg/injection, schedule: Q01DX001 (ip), vehicle: Klucel (hydroxypropylcellulose) (HPC) 98 % of control | dose: 400.0 mg/kg/injection, schedule: Q01DX001 (ip), vehicle: Klucel (hydroxypropylcellulose) (HPC) 108 % of control

CCCCCCCCCCCCCC(=O)N(CC)CC
inactive: [4] 104 % of control | dose: 100.0 mg/kg/injection, schedule: Q01DX009 (ip), vehicle: carboxymethylcellulose (CMC) 95 % of control and 100 % of control | dose: 100.0 mg/kg/injection, schedule: Q04DX003 (ip), vehicle: carboxymethylcellulose (CMC) 98 % of control | [5] 94 % of control | dose: 200.0 mg/kg/injection, schedule: Q01DX009 (ip), vehicle: carboxymethylcellulose (CMC) 101 % of control and 107 % of control | dose: 200.0 mg/kg/injection, schedule: Q04DX003 (ip), vehicle: carboxymethylcellulose (CMC) 92 % of control | [6] 96 % of control | dose: 400.0 mg/kg/injection, schedule: Q04DX003 (ip), vehicle: carboxymethylcellulose (CMC) 103 % of control

N=C1SSC(=S)C1C(N)=O (stereo not drawn)
inactive: [3] 94 % of control | [4] 96 % of control | [5] 100 % of control | [6] 100 % of control

CC([NH-])C(C)[NH-].[Cl][Pd][Cl] (stereo not drawn)
inactive: dose: 12.5 mg/kg/injection, schedule: Q04DX002 (ip), vehicle: Klucel (hydroxypropylcellulose) (HPC) 97 % of control | dose: 25.0 mg/kg/injection, schedule: Q04DX002 (ip), vehicle: Klucel (hydroxypropylcellulose) (HPC) 97 % of control | dose: 50.0 mg/kg/injection, schedule: Q04DX002 (ip), vehicle: Klucel (hydroxypropylcellulose) (HPC) 93 % of control | [13] 93 % of control | [14] 90 % of control | dose: 200.0 mg/kg/injection, schedule: Q04DX002 (ip), vehicle: saline with Tween-80 97 % of control

Cc1ccc(S(=O)(=O)N(CC(=O)c2ccccc2)c2ccc(Br)cc2)cc1
inactive: [15] 89 % of control | [16] 86 % of control | [17] 86 % of control

C=C(Br)CNC(=O)Nc1c2ccccc2nc2ccccc12
inactive: [18] 86 % of control | [19] 88 % of control | [20] 89 % of control | [21] 92 % of control | dose: 150.0 mg/kg/injection, schedule: Q01DX009 (ip), vehicle: Klucel (hydroxypropylcellulose) (HPC) 89 % of control | dose: 300.0 mg/kg/injection, schedule: Q01DX009 (ip), vehicle: Klucel (hydroxypropylcellulose) (HPC) 91 % of control

COc1ccc2c(c1O)C13CCN(C)C(C2)C1CCC1(C3)OCCO1 (stereo not drawn)
inactive: [15] 95 % of control | [2] 100 % of control | [16] 104 % of control | dose: 200.0 mg/kg/injection, schedule: Q01DX009 (ip), vehicle: saline 103 % of control | [17] 98 % of control

CC(=O)/C(C)=C/C(=O)O
inactive: dose: 25.0 mg/kg/injection, schedule: Q01DX009 (ip), vehicle: saline 95 % of control | dose: 25.0 mg/kg/injection, schedule: Q04DX003 (ip), vehicle: saline 97 % of control | [1] 97 % of control | dose: 50.0 mg/kg/injection, schedule: Q04DX003 (ip), vehicle: saline 97 % of control | [2] 105 % of control | [22] 97 % of control and 108 % of control

CCCCCCCCC/C(C)=N\NC(=O)c1ccccc1
inactive: [8] 105 % of control | [10] 92 % of control | [12] 97 % of control

CNc1nc(NC)nc(NC)n1
inactive: [18] 102 % of control | [19] 102 % of control | [20] 98 % of control | [21] 98 % of control | dose: 200.0 mg/kg/injection, schedule: Q01DX009 (ip), vehicle: Klucel (hydroxypropylcellulose) (HPC) 100 % of control

Clc1sc2ccccc2c1Cl
inactive: [20] 103 % of control | [21] 95 % of control

Nc1ccn(CC(=O)N2CCC3(CC2)SSC2(CCN(C(=O)Cn4ccc(N)nc4=O)CC2)S3)c(=O)n1
inactive: [22] 97 % of control | dose: 200.0 mg/kg/injection, schedule: Q04DX003 (ip), vehicle: saline 91 % of control | dose: 400.0 mg/kg/injection, schedule: Q04DX003 (ip), vehicle: saline 97 % of control

Cn1c(=O)c2[nH]c(C3CC4C=CC3C4)nc2n(C)c1=O (stereo not drawn)
inactive: dose: 50.0 mg/kg/injection, schedule: Q01DX001 (ip), vehicle: saline 93 % of control | [15] 104 % of control | [16] 98 % of control

CCOC(=O)NCC(C)(CCN1CCCCC1)c1cccc2ccccc12 (stereo not drawn)
inactive: dose: 6.25 mg/kg/injection, schedule: Q04DX003 (ip), vehicle: saline with Tween-80 104 % of control | dose: 12.5 mg/kg/injection, schedule: Q04DX003 (ip), vehicle: saline with Tween-80 98 % of control | dose: 25.0 mg/kg/injection, schedule: Q04DX003 (ip), vehicle: saline with Tween-80 97 % of control

O=C(/C(=C/c1ccc(Cl)cc1)c1ccccc1)c1ccc(O)cc1
inactive: [16] 92 % of control | [17] 86 % of control

CCC(C)(C)c1ccc(OCCOS(=O)(=O)c2ccc(C)cc2)cc1
inactive: [7] 96 % of control | [9] 108 % of control | [11] 97 % of control

Nc1ccc(I)c([N+](=O)[O-])c1
inactive: dose: 100.0 mg/kg/injection, schedule: Q04DX003 (ip), vehicle: acetone 87 % of control | dose: 200.0 mg/kg/injection, schedule: Q04DX003 (ip), vehicle: acetone 92 % of control | dose: 400.0 mg/kg/injection, schedule: Q04DX003 (ip), vehicle: acetone 101 % of control

CN1CCc2ccccc2C1Cc1cc(OCc2ccccc2)ccc1N (stereo not drawn)
inactive: dose: 10.0 mg/kg/injection, schedule: Q01DX001 (ip), vehicle: carboxymethylcellulose (CMC) 89 % of control | dose: 20.0 mg/kg/injection, schedule: Q01DX001 (ip), vehicle: carboxymethylcellulose (CMC) 95 % of control | dose: 40.0 mg/kg/injection, schedule: Q01DX001 (ip), vehicle: carboxymethylcellulose (CMC) 93 % of control | dose: 80.0 mg/kg/injection, schedule: Q01DX001 (ip), vehicle: carboxymethylcellulose (CMC) 98 % of control

CC(CO)(CO)C1CCCCC1
inactive: dose: 25.0 mg/kg/injection, schedule: Q04DX002 (ip), vehicle: saline with Tween-80 93 % of control | [13] 101 % of control | [14] 97 % of control

CCOC(=O)CCCNCCCC(=O)OCC
inactive: [15] 97 % of control | [16] 103 % of control | [17] 114 % of control
